Reference: US12173349B2, “Lung protease nanosensors and uses thereof” (Massachusetts Institute of Technology, priority 2018, dated 2024)
*1 amine or outer side, *2 acyl side, *3 side chain or, on linkers, in order; H or OH if unused. Where no end group is shown, it is not given here. [ ]: non-standard residue; d: D form. ξ: configuration not given here. +10F = isotope-labelled Phe, +10, O=[13C]([13C@H]([13CH2][13c]1[13cH][13cH][13cH][13cH][13cH]1)[15NH][*:1])[*:2]; ξβ3hPhg(2-NO2) = O=C(CC(N[*:1])c1ccccc1[N+](=O)[O-])[*:2]; FAM = carboxyfluorescein fluorophore label; AF488 = Alexa Fluor 488 fluorophore label; +1A = isotope-labelled Ala, +1; +1F = isotope-labelled Phe, +1; +2G = isotope-labelled Gly, +2; +4A = isotope-labelled Ala, +4

Legend:
[1] = system: 15 proteases in the LUAD protease panel; assay: in vitro recombinant protease screen of FRET-paired substrates; format: biochemical; settings: fluorescence fold change at 45 minutes; 1 μM substrate, 12.5 nM recombinant enzyme; MP metallo-, SP serine, AP aspartic protease
Excerpt: Hundreds of peptide sequences have been previously designed and validated as protease substrates, leveraging known catalytic specificities of different protease families, published datasets and substrate sequences in databases like cutDB and MEROPS (Igarashi et al., Nucleic Acids Res 35, D546-549, 2007; Rawlings et al., Nucleic Acids Res 46, D624-D632, 2018). Fourteen of these substrates were nominated in an effort to cover the specificity profiles of metallo-, serine and aspartic endoproteases, all of which were included in the LUAD protease panel, and the catalytic activity of each protease-substrate pair was characterized. Quenched probes that incorporated the 14 peptide substrates were synthesized such that they fluoresce upon proteolytic cleavage to enable real-time monitoring of protease activity in vitro (FIG. 3A and Table 2). Each probe was incubated with each protease in the panel and fluorescence was monitored over 45 minutes. Shown are sample kinetic plots monitoring dequenching of the 14 FRET-paired probes when incubated with (above) and without (below) recombinant matrix metalloproteinase 3 (MMP3) (FIG. 3B). […] See also FIG. 19.
Fluorogenic protease substrates were synthesized by CPC Scientific. Recombinant proteases were purchased from Enzo Life Sciences, R&D Systems and Haematologic Technologies. For recombinant protease assays, fluorogenic substrates PPQ1-14 (1 μM final concentration) were incubated in 30 μL final volume in appropriate enzyme buffer, according to manufacturer specifications, with 12.5 nM recombinant enzyme at 37° C. (FIG. 3). Proteolytic cleavage of substrates was quantified by increases in fluorescence over time by fluorimeter (Tecan Infinite M200 Pro). Enzyme cleavage rates were quantified as relative fluorescence increase over time normalized to fluorescence before addition of protease. Hierarchical clustering was performed in GENE-E, using fluorescence fold changes at 45 minutes.

[2] = system: Kras and p53 mutant lung adenocarcinoma (KP mice); assay: urinary ABN readout and random forest classification in KP lung adenocarcinoma model; format: in vivo
Method: To characterize ABN performance in vivo, 14 protease-sensitive ABNs were administered to KP mice and healthy, age and sex-matched controls at 5, 7.5 and 10.5 weeks after tumor initiation. Mouse bladders were voided one hour after intrapulmonary delivery and all fresh urine produced during the subsequent hour (from 60-120 minutes after administration) was pooled and collected. LC-MS/MS was performed and peak area ratios (defined as peak area of urinary reporter divided by peak area of spiked-in internal standard) of protease-sensitive reporters were mean-normalized within each sample to reduce mouse-to-mouse variation.
A random forest classifier was then sought to be built to enable prospective diagnosis of lung cancer in KP mice. Random forest is a high-performance classifier, applicable to a wide variety of classification tasks, that generates a collection of decision trees (a “forest”) that are sampled to produce classification results (Breiman, Machine Learning 45, 5-32, 2001). A random forest classifier was trained using 50% of control mice at 5 weeks, 7.5 weeks and 10.5 weeks, as well as 50% of KP mice at 7.5 weeks (FIG. 6A). The classifier assigned a probability that each mouse belonged to either the KP cohort or the healthy control cohort (FIG. 6B, “Training” panel), achieving perfect separation of control and KP mice. The classifier was then sought to be tested on an independent validation cohort consisting of classifier-naive KP mice at 5 weeks, 7.5 weeks and 10.5 weeks post-induction, as well as the remaining control mice from each time point.
Male B6/SV129 Kras^LSL-G12D/+; Trp53^fl/fl (KP) mice between 18 and 30 weeks old were used for lung adenocarcinoma experiments. Tumors were initiated, as described previously (DuPage et al., Nat Protoc 4, 1064-1072 (2009)), by the intratracheal administration of 50 μL of adenovirus-SPC-Cre (2.5×10^8 PFU in Opti-MEM with 10 mM CaCl2)) under isoflurane anesthesia. […] Tumor growth was monitored by micro computed tomography (microCT) imaging (General Electric) and was scored by a blinded radiation oncologist using MicroView (Parallax Innovations) (Table 4). Tumor volumes were calculated by using the ROI sphere/elliptical tool.
ABN constructs (GluFib-Substrate-PEG-840 kDa) for urinary experiments were synthesized by CPC Scientific (Sunnyvale, CA). ABNs were dosed (50 μL total volume, 20 μM concentration per ABN) by intratracheal intubation, as described above. Bladders were voided 60 minutes after ABN administration and all urine produced 60-120 min after ABN administration was collected using custom tubes in which the animals rest upon 96-well plates that capture urine. Urine was pooled and frozen at −80° C. until analysis by LC-MS/MS.
Liquid chromatography/tandem mass spectrometry was performed by Syneos Health (Princeton, NJ) using a Sciex 6500 triple quadrupole instrument. Briefly, urine samples were treated with UV irradiation to photocleave the ANP linker and liberate the Glu-Fib reporter from residual peptide fragments. Samples were extracted by solid-phase extraction and analyzed by multiple reaction monitoring by LC-MS/MS to quantify concentration of each Glu-Fib mass variant. Analyte quantities were normalized to a spiked-in internal standard and concentrations were calculated from a standard curve using peak area ratio (PAR) to the internal standard. Mean normalization was performed on PAR values to account for mouse-to-mouse differences in ABN inhalation efficiency and urine concentration.
Principal component analysis (PCA) was performed on mean normalized PAR values in the R statistical environment (Team, R.C. R, R Foundation for Statistical Computing, Vienna, Austria, 2017) using the prcomp function. Binary classification was performed using the Caret package (Kuhn, M. caret: Classification and Regression Training. (2017)) in the R statistical environment). […]

[3] = system: P. aeruginosa strain PA01 lung infection; assay: urinary reporter ELISA after intravenous ABNs in bacterial pneumonia model; format: in vivo, mice; settings: for urine signal in ciprofloxacin-treated versus doxycycline-treated mice / urine signal relative to healthy controls: 24 hours post-infection; for urine signal after ciprofloxacin treatment above baseline: 7 days post-infection, 4 days of ciprofloxacin; for increase in urinary reporter after initiation of infection relative to pre-infection: ABNs injected intravenously 24 hours post infection, urine at 1 hour; for ROC AUC, infected from healthy mice: FIG. 11D, n=9 mice; for ROC AUC, ciprofloxacin treated from pre-treatment signal (Treatment): FIG. 12, 7 days post-infection; for ROC AUC, infected from healthy (Infection): FIG. 12, administered prior to drug treatment; for ROC AUC, effective versus ineffective treatment (doxycycline-treated vs ciprofloxacin-treated): treatment started 5 hours post-infection, ABNs 24 hours post-infection
Excerpt: Peptide substrates were coupled to 40 kDa 8-arm PEG-MAL via terminal cysteines on each peptide to generate ABNs for use in vivo (Dudani et al., Adv Funct Mater, 26, 2919, 2016; Kwong et al., Proc Natl Acad Sci, 112, 12627, 2015). Each substrate is barcoded with an independent ligand and a biotin on a stable urinary peptide reporter that can be measured by a sandwich ELISA after proteolysis of the substrate, release of the reporter, and clearance into the urine (Warren et al., Proc Natl Acad Sci USA, 111, 3671, 2014; Lin et al., ACS Nano, 0) (FIGS. 11A and 16). The selection of a pair of distinct, ligand-encoded reporters enables simultaneous, multiplexed administration of the two nanosensors. Following initiation of the infection, ABNs were injected intravenously after 24 hours and collected urine an hour after the administration of the nanosensors.
To evaluate whether the presently disclosed ABNs could be used to monitor clearance of infection, PA01 was instilled intratracheally into mice, the pair of ABNs was administered the following day to confirm and set a baseline for infection in each individual, and then antibiotic treatment was initiated with ciprofloxacin, a commonly used broad spectrum antibiotic with activity against gram-negative bacteria, including PA01 (Zeiler et al., Ciprofloxacin, 14, 1986). The diagnostic ABN injection and urine collection was repeated 7 days post-infection (with an interceding 4 days of drug treatment) to determine whether the substrates could monitor recovery from infection following effective antibiotic treatment (FIG. 12A). After ciprofloxacin treatment, LAS urine signal returned to baseline, though ELA remained elevated (1.2-fold and 2.2-fold above baseline, respectively; […]).
Individual responses to antimicrobial treatment can be highly variable, dependent upon the strain of pathogen and the presence of antibiotic resistance, and current clinical tests take 24-72 hours to identify antibiotic susceptibility (Caliendo et al., Clin Infect Dis, 57, S139, 2013). In addition, current clinical tests used to visualize lung infections (e.g., chest X-ray and computed tomography) are often unable to distinguish active infections from those that have been adequately treated until several weeks after antibiotic therapy is complete, because the airspace opacifications characteristic of pneumonia remain apparent on routine radiography screens (Bruns et al., J Gen Intern Med, 25, 203, 2010). Therefore, the ability of the infection-tracking ABNs to identify successful versus insufficient treatment on an acute time-scale shortly after therapeutic initiation was sought to be evaluated. Only 5 hours after establishing lung infections with PA01, antibiotic treatment was initiated with either ciprofloxacin (efficacious against P. aeruginosa) or doxycycline (ineffective against gram-negative bacteria including P. aeruginosa) (FIG. 13A). The following day, multiplexed LAS-E and ELA-E ABNs were administered and urine was collected. […] The persistent Pseudomonas immunostaining observed following ciprofloxacin treatment might be derived from residual Pseudomonas antigens remaining from lysed bacteria that had not yet been cleared by the immune system. Alternatively, the reduced LAS sensor reading in these treated mice could reflect a suppression of LasA secretion from bacteria as they are killed by the potent antibiotic.
All animal studies were approved by Massachusetts Institute of Technology's Committee on Animal Care. For infection studies, 5-7 week old female CD-1 mice were innoculated intratracheally with 1.25×10^6 CFU of P. aeruginosa strain PA01 in 50 μL of PBS. Bacteria were cultured overnight in LB broth, then subcultured and grown to log phase (OD600≈0.5). Bacteria were pelleted, washed with sterile PBS, and then resuspended to the requisite concentration for intratracheal administration. Mice were administered buprenorphine and meloxicam several hours after infection. […]

Substance: PP03: ABN: reporter e(+3G)(+1V)ndneeGFFs(+4A)r, ANP, substrate PVPLSLVM, nanocarrier PEG8-40 kDa (chain 1 [dE]G[+1V][dN][dD][dN][dE][dE]GFF[dS][+4A][dR]; not fully specified (some residues); printed as PP03: ABN: reporter e(+3G)(+1V)ndneeGFFs(+4A)r, ANP, substrate PVPLSLVM, nanocarrier PEG8-40 kDa; also: ANP photolabile linker, PEG8-40 kDa nanocarrier, linkage of reporter, ANP, substrate and carrier not given here)
- protease class(es) cleaving the substrate in vitro [1]: metalloproteases or both metalloproteases and aspartic proteases
- urinary reporter enrichment relative to healthy controls ([2]; KP7.5 wk urine): enriched
- urinary reporter enrichment relative to healthy controls ([2]; KP10.5 wk urine): enriched

Substance: LAS-E: LasA substrate with AF488 ligand-encoded reporter and biotin (SEQ ID NO: 46), coupled to 40 kDa 8-arm PEG-MAL ([dE]G[dV][dN][dD][dN][dE][dE]G[dF][dF][dS][dA][dR]K(AF488)GGLGGGAGC; also: biotin, site not given here, coupled to 40 kDa 8-arm PEG-MAL, site not given here)
- urine signal in ciprofloxacin-treated versus doxycycline-treated mice [3]: significantly lower
- urine signal after ciprofloxacin treatment above baseline [3]: 1.2 fold
- increase in urinary reporter after initiation of infection relative to pre-infection [3]: 1.8 fold
- ROC AUC, infected from healthy mice [3]: 0.86
- ROC AUC, ciprofloxacin treated from pre-treatment signal (Treatment) [3]: 0.88
- ROC AUC, infected from healthy (Infection) [3]: 0.92
- urine signal relative to healthy controls ([3]; doxycycline-treated mice): elevated
- ROC AUC, effective versus ineffective treatment (doxycycline-treated vs ciprofloxacin-treated) [3]: 0.893

Substance: PP04: ABN: reporter e(+2G)Vndnee(+2G)FFs(+4A)r, ANP, substrate PLGLRSW, nanocarrier PEG8-40 kDa (chain 1 [dE][+2G]V[dN][dD][dN][dE][dE][+2G]FF[dS][+4A][dR][ξβ3hPhg(2-NO2)]; also: ANP photolabile linker joins reporter and substrate, sites not given here, PEG8-40 kDa nanocarrier, site not given here)
- protease class(es) cleaving the substrate in vitro [1]: SP/MP

Substance: PP10: ABN: reporter e(+2G)(+6V)ndneeG(+10F)(+1F)s(+1A)r, ANP, substrate ILSRIVGGG, nanocarrier PEG8-40 kDa (chain 1 [dE][+2G][+6V][dN][dD][dN][dE][dE]G[+10F][+1F][dS][+1A][dR][ξβ3hPhg(2-NO2)]; also: ANP photolabile linker joins reporter and substrate, sites not given here, PEG8-40 kDa nanocarrier, site not given here)
- protease class(es) cleaving the substrate in vitro [1]: MP/SP/AP

Substance: ELA-E: elastase substrate with FAM ligand-encoded reporter and biotin (SEQ ID NO: 48), coupled to 40 kDa 8-arm PEG-MAL ([dE]G[dV][dN][dD][dN][dE][dE]G[dF][dF][dS][dA][dR]K(FAM)GGAAFAGC; also: biotin, site not given here, coupled to 40 kDa 8-arm PEG-MAL, site not given here)
- urine signal in ciprofloxacin-treated versus doxycycline-treated mice [3]: not significantly different
- urine signal after ciprofloxacin treatment above baseline [3]: 2.2 fold
- increase in urinary reporter after initiation of infection relative to pre-infection [3]: 2.6 fold
- ROC AUC, infected from healthy mice [3]: 1.00
- ROC AUC, ciprofloxacin treated from pre-treatment signal (Treatment) [3]: 0.72
- ROC AUC, infected from healthy (Infection) [3]: 1.00
- urine signal relative to healthy controls ([3]; ciprofloxacin-treated mice): robustly elevated
- urine signal relative to healthy controls ([3]; doxycycline-treated mice): robustly elevated
- ROC AUC, effective versus ineffective treatment (doxycycline-treated vs ciprofloxacin-treated) [3]: 0.536
